Square brackets hold non-standard residues; d marks the D form. Peptide text beside a SMILES is read from it. * marks the point of attachment. 4Abz = Nc1ccc(C(=O)O)cc1; NHBn = c1ccc(CN*)cc1
Molecular target: RAC-alpha serine/threonine-protein kinase (Homo sapiens, UniProt P31749)
Assay: AKT IMAP Fluorescence Polarization Assay
Conditions: pH 7.2; 23 °C
Source text: A bead-based FP assay methodology, termed IMAP, has been developed for the serine/threonine kinase, AKT that allows for direct measurement of product formation. The assay design utilizes a fluoresceinated peptide substrate that, when phosphorylated by the kinase, binds to nanoparticles derivatized with trivalent metal cations through a metal-phospholigand interaction. The result of this bound fluoresceinated phosphorylated product is an increase in polarization signal caused by a decrease in the molecular mobility of the bound product. Reported values are an average of three independent binding curves utilizing an IMAP Akt Assay Kit (Molecular Devices). Reactions were conducted in wells with fluoresceinated peptide, ATP, and Akt1, and inhibitor in reaction buffer. The reactions were equilibrated for 1 h at room temperature then data points were collected and analyzed.

Sequence of RAC-alpha serine/threonine-protein kinase (P31749 whole entry): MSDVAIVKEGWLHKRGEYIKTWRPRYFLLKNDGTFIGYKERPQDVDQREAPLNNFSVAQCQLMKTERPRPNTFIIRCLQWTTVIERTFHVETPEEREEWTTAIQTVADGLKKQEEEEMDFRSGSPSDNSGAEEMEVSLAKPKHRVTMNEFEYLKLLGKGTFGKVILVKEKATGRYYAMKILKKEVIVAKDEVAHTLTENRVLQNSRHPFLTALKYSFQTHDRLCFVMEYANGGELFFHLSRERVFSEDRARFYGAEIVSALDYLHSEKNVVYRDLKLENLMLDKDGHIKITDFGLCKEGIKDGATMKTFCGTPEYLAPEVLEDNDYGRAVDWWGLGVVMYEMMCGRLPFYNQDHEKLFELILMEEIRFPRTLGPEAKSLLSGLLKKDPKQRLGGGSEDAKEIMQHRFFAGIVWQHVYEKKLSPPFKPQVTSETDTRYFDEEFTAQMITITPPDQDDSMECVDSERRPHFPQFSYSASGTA

IC50 | Compound
119 µM | CC(=O)NC(CCCN=C(N)N)C(=O)Nc1ccc(C(=O)NC(C(=O)NC(Cc2ccccc2)C(=O)NCc2ccccc2)C(C)C)cc1 (configuration not stated) [Peptidomimetic, 9] (Ac-R[4Abz]VF-NHBn; configuration not given here)
28 µM | CC(=O)NCC(=O)NC(CCCN=C(N)N)C(=O)N1CCCC1C(=O)NC(CCCN=C(N)N)C(=O)Nc1ccc(C(=O)NC(C(=O)NC(Cc2ccccc2)C(=O)NCc2ccccc2)C(C)C)cc1 (configuration not stated) [Peptidomimetic, 2] (Ac-GRPR[4Abz]VF-NHBn; configuration not given here)

From BindingDB's records for doi:10.1016/j.bmc.2008.09.058 (Yale University, 2009)
